According to ChEMBL document CHEMBL1201862, “PubChem BioAssay data set” (2004):
Several values for one entry are separate records, joined by “and”; a condition that tells them apart may be missing. Equal values may be shown once.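 How tested: cells in 96-well plates exposed to compound for 48 hours at five concentrations. GI50 marks 50% less growth.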 Activity calls are given as the source filed them. No stated cut-off is given here; in the data, active = GI50 up to about 1.1 µM and inactive = higher.

What was measured:
Assay in all cases: NCI-60 cell line screen, 48 h
M14 = test system: M14
CCRF-CEM = test system: CCRF-CEM
NCI-H522 = test system: NCI-H522
IGROV-1 = test system: IGROV-1
HL-60 = test system: HL-60
SNB-19 = test system: SNB-19
TK-10 = test system: TK-10
COLO 205 = test system: COLO 205
SK-MEL-5 = test system: SK-MEL-5
HT-29 = test system: HT-29
UO-31 = test system: UO-31
UACC-62 = test system: UACC-62
RPMI-8226 = test system: RPMI-8226
A498 = test system: A498
SK-MEL-2 = test system: SK-MEL-2
786-0 = test system: 786-0
SF-268 = test system: SF-268
OVCAR-4 = test system: OVCAR-4
MDA-MB-435 = test system: MDA-MB-435
MCF7 = test system: MCF7

Structure (SMILES) | GI50 (M14) | GI50 (CCRF-CEM) | GI50 (NCI-H522) | GI50 (IGROV-1) | GI50 (HL-60) | GI50 (SNB-19) | GI50 (TK-10) | GI50 (COLO 205) | GI50 (SK-MEL-5) | GI50 (HT-29) | GI50 (UO-31) | GI50 (UACC-62) | GI50 (RPMI-8226) | GI50 (A498) | GI50 (SK-MEL-2) | GI50 (786-0) | GI50 (SF-268) | GI50 (OVCAR-4) | GI50 (MDA-MB-435) | GI50 (MCF7)
CC1=C(/C=C/C(C)=C/C=C/C(C)=C/C=C/C=C(C)/C=C/C=C(C)/C=C/C2=C(C)C(=O)C(O)CC2(C)C)C(C)(C)CC(O)C1=O (stereo not given) | > 100 µM (inactive) | > 100 µM (inactive) | > 100 µM (inactive) | > 100 µM (inactive) | > 100 µM (inactive) | > 100 µM (inactive) | > 100 µM (inactive) | > 100 µM (inactive) | > 100 µM (inactive) | > 100 µM (inactive) | > 100 µM (inactive) | > 100 µM (inactive) | > 100 µM (inactive) | > 100 µM (inactive) | > 100 µM (inactive) | > 100 µM (inactive) | > 100 µM (inactive) | > 100 µM (inactive) | – | –
CC(=O)CCC(=O)C(=[N+]=[N-])S(=O)(=O)c1ccccc1 | > 100 µM (inactive) | > 100 µM (inactive) | 45.8 µM (inactive) | > 100 µM (inactive) | > 100 µM (inactive) | > 100 µM (inactive) | > 100 µM (inactive) | > 100 µM (inactive) | > 100 µM (inactive) | > 100 µM (inactive) | > 100 µM (inactive) | > 100 µM (inactive) | > 100 µM (inactive) | – | > 100 µM (inactive) | > 100 µM (inactive) | > 100 µM (inactive) | – | > 100 µM (inactive) | > 100 µM (inactive)
O=c1c(/C=C/c2c(O)ccc3ccccc23)nnc2sc(-c3cccc([N+](=O)[O-])c3)nn12 | 10.8 µM (inactive) | – | 9.33 µM (inactive) | 15.3 µM (inactive) | 2.62 µM (inactive) | – | 9.29 µM (inactive) | 26.5 µM (inactive) | – | 36.4 µM (inactive) | 9.93 µM (inactive) | 11.4 µM (inactive) | 14.6 µM (inactive) | – | 5.57 µM (inactive) | 7.13 µM (inactive) | 8.93 µM (inactive) | 6.98 µM (inactive) | 17.1 µM (inactive) | –
CCNC(=O)CCC(C)[C@H]1CCC2C3C(C[C@H](OC(C)=O)[C@@]21C)[C@@]1(C)CCC2(C[C@H]1C[C@H]3OC(C)=O)OOC1(CCC(C)CC1)OO2 (stereo not given in full) | 2.73 µM (inactive) and 2.14 µM (inactive) | 710 nM (active) and 1.24 µM (inactive) | 1.47 µM (inactive) and 1.22 µM (inactive) | 1.35 µM (inactive) and 1.41 µM (inactive) | 1.49 µM (inactive) and 1.97 µM (inactive) | 6.38 µM (inactive) and 4.21 µM (inactive) | 2.3 µM (inactive) and 2.43 µM (inactive) | 1.53 µM (inactive) and 1.65 µM (inactive) | 1.67 µM (inactive) and 1.61 µM (inactive) | – | 1.02 µM (active) and 1.35 µM (inactive) | 1.69 µM (inactive) and 2.26 µM (inactive) | – | – | 1.58 µM (inactive) and 1.61 µM (inactive) | 2.38 µM (inactive) and 1.58 µM (inactive) | – | 1.24 µM (inactive) and 1.58 µM (inactive) | 1.79 µM (inactive) and 1.72 µM (inactive) | 2.56 µM (inactive) and 2.7 µM (inactive)
CCOC(=O)/N=c1\ss/c(=N\C(=S)N(C)C)n1-c1ccccc1 | > 10 µM (inactive) | 29.6 µM (inactive) | 0.235 µM (active) | 4.11 µM (inactive) | > 10 µM (inactive) | 47.2 µM (inactive) | 63 µM (inactive) | 3.19 µM (inactive) | 2.62 µM (inactive) | 3.17 µM (inactive) | > 10 µM (inactive) | 72.3 µM (inactive) | 7.48 µM (inactive) | 4.42 µM (inactive) | 67.8 µM (inactive) | 14.6 µM (inactive) | 2.06 µM (inactive) | 2.16 µM (inactive) | – | –
Cc1c2c(n(CCc3ccccc3)c1C)NN=C(C#N)S2(=O)=O | > 100 µM (inactive) | – | 71.1 µM (inactive) | > 100 µM (inactive) | – | > 100 µM (inactive) | > 100 µM (inactive) | > 100 µM (inactive) | > 100 µM (inactive) | > 100 µM (inactive) | > 100 µM (inactive) | > 100 µM (inactive) | > 100 µM (inactive) | – | > 100 µM (inactive) | > 100 µM (inactive) | > 100 µM (inactive) | > 100 µM (inactive) | > 100 µM (inactive) | > 100 µM (inactive)
Cc1nc2ccccc2c(=O)n1-c1ccccc1I | > 100 µM (inactive) | > 100 µM (inactive) | > 100 µM (inactive) | > 100 µM (inactive) | > 100 µM (inactive) | > 100 µM (inactive) | > 100 µM (inactive) | > 100 µM (inactive) | > 100 µM (inactive) | > 100 µM (inactive) | 90.2 µM (inactive) | > 100 µM (inactive) | > 100 µM (inactive) | > 100 µM (inactive) | > 100 µM (inactive) | > 100 µM (inactive) | > 100 µM (inactive) | > 100 µM (inactive) | – | –
